Data on five compounds can be found in patent US8710252B2, “Hepodxilin analog enantiomers” (priority 2006, dated 2014).

Broadly, the IC50 is the point on the concentration scale where inhibition reaches its midpoint.

Entries after “also recorded” stand apart in the source; their conditions may differ.

One assay deals with washed human platelets. As to the kind of experiment: I-BOP evoked human platelet aggregation in vitro with washed platelets. Particulars: for IC50: washed human platelets, 5 ng I-BOP, compounds are methyl esters, read-out: IC50, inhibition of I-BOP evoked human platelet aggregation. The assay is classed as cell-based. The protocol: Washed human platelets were prepared as previously described (Pace-Asciak et al., 2002). The aggregation of platelets was carried out in a conventional 4-well aggregometer with stirring of the suspension maintained at 37° C. The platelet suspension was caused to aggregate with a thromboxane stable analog, I-BOP. The isolated enantiomer compounds and their respective racemates, PBT-3 and PBT-4, were added at various concentrations to cuvettes containing 375×10^6 platelets/ml, 1 min prior to the addition of 5 ng I-BOP (Cayman Chemicals, Ann Arbor, Mich.). Aggregation was monitored for an additional 5 min.

Assay [1] relates to human leukemic K562 cells. The experiment in a line: Inhibition of 3H-methyl thymidine incorporation (cell proliferation) in K562 cells. The format is cell-based. Particulars: for IC50: 6 h treatment, compounds are methyl esters. The protocol:
The human leukemic K562 cell line was established as previously reported (Qiao et al., 2003). Cells were maintained as suspension cultures in RPMI 1640 medium supplemented with 100 1.1/ml penicillin G, 100 μg/ml streptomycin, 10% (v/v) […] in a humidified atmosphere of 5% CO2 at 37° C. Cell viability was assessed by the exclusion of Trypan blue. Incorporation of ^3H-methyl thymidine into cell DNA was used as an assay for cell proliferation. Cells ([…]) were starved for 12 h, and were subsequently treated with the test compounds. Compounds A, B, C and D were made up at various concentrations in DMSO ([…] A, B, C and D. Concentrations were doubled for racemates PBT-3 and PBT-4) and 1 of these solutions was added/ml volume of cells. Cells were suspended in RPMI 1640 medium. At 6 h post-treatment at 37° C. the cells were fixed and denatured essentially as described in Qiao et al. (2003), harvested and passed through Whatman GF/C glass filters. The filters were washed and counted for radioactivity.
For orientation: Dividing cells build labelled thymidine or BrdU into new DNA.

Assay [2] has as its system Caspase-3 cleavage in K562 cells. The experiment in a line: Caspase-3 cleavage in K562 cells, Western blot. The assay is classed as cell-based, human. The settings on record: 10 uM, 6 h; for Cleavage of caspase-3: FIG. 7. On the procedure: Cell culture: Human leukemia K562 cells, obtained from ATCC (American Type Culture Collection), were maintained in RPMI 1640 medium containing 100 units/ml penicillin G, 100 μg/ml streptomycin, 10% (v/v) fetal calf serum in a humidified atmosphere with 5% CO2 at 37° C. The ability of the cells to exclude trypan Blue dye was used to assess cell viability.
Cell treatment: K562 cells were stored in 0.5% FBS for 15 min before the experiment. The cells, 6×10^5, were treated with DMSO as vehicle, or with PBT-3, PBT-4, or compounds A, B, C and D at 10 uM/dish (8 ml). Gleevec™ (STI) was used at 5 μM/dish. All experiments were without FBS and treatment lasted 6 h at 37° C. Treatment was terminated by washing the cells with ice-cold PBS buffer by centrifugation at 500×g for 5 min. Cells were lysed in buffer containing 20 mM Tris-HCl buffer, pH 7.4, 150 NaCl, 1 mM EDTA, 1 mM EGTA, 1% Triton X-100 2.5 mM sodium pyrophosphate, 1 mM beta-glycerophosphate, 1 mM sodium orthovanadate, 1 mM PMSF and 1 μM leupeptin/1 μM Aprotinin/1 μM pepstain A, on ice for 30 min. The lysates were clarified by centrifugation at 15,000×g for 15 min at 4° C. Lysates were subjected to protein assay (BCA, Pierce) and kept at −80° C.
Western blot: Thirty micrograms of protein from each sample were taken, and SDS-PAGE sample loading buffer was added. The mixture was boiled for 5 min. After centrifugation, the samples were loaded onto 15% SDS-PAGE gel and the gel was run (BioRad Protein II) for 2-3 h at 20 mA. The protein was transferred to a Trans-blot Nitrocellulose membrane (Millipore). Protein bands on the membranes were checked visually with Ponceau S-staining to ensure equivalent protein load/transfer comparing different samples. Membranes were blocked with 5% non-fat dry milk in PBS containing 0.5% Tween-20 for 1 h at room temperature, and then incubated with 1:1000 dilution of anti-caspase-3 antibody (BD Transduction Laboratories, Mississauga, Canada) overnight at 4° C. Secondary antibody of horseradish peroxidase anti-mouse antibody was used at 1:2000 dilution. Bound antibodies were detected by using enhanced chemilluminescence (ECL kit, Amersham Pharmacia Biotech) and the membranes were exposed to Hyper film for ECL detection. The same membrane was stripped by placing in buffer containing 62.5 mM Tris-HCl, pH 6.8/2% SDS/100 mM beta-mercaptoethanol at 50° C. for 30 min. The membrane was washed 3 times with PBS containing 0.5% Tween-20. The membrane was blocked by PBS buffer containing 0.5% Tween-20 and 5% skim milk. The anti-tubulin antibody (Santa Cruz, Calif.) was diluted 1:1000 and membrane analyzed by ECL as described above.

Assay [3] addresses T1, Ga14-DBD-PPAR gamma-LBD fusion protein (Homo sapiens, UniProt P37231).
T1 construct: expressed in transfected cells; host or cells: mouse embryonic fibroblasts (MEFs) or ME3 cells
T1 sequence (P37231 238-503 limits assumed): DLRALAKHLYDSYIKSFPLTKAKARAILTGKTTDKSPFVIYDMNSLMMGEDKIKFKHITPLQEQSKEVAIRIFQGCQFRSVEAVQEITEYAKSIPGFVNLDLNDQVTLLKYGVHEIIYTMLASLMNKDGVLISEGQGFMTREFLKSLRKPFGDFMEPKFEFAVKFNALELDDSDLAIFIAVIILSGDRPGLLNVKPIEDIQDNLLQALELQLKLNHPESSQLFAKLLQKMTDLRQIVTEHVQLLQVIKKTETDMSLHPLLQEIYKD
The experiment in a line: PPAR gamma transactivation assay (Gal4-PPAR gamma LBD / UASx4-TK-luc reporter). The format is cell-based. The source says: The UASx4-TK-luc reporter construct (where UAS refers to “upstream activator sequence”) contains four Ga14-responsive elements. The plasmid Ga14-PPAR gammaLBD encodes a Ga14-DBD-PPAR gamma-LBD fusion protein (i.e. the DNA-binding domain, DBD, of Ga14 fused to the ligand-binding domain, LBD, of PPAR gamma) capable of transactivating the UASx4-TK-luc reporter plasmid by binding to the UAS. The CMV-beta-galactosidase plasmid (where CMV is cytomegalovirus) was used for normalization of experimental values.
The cells were replated, typically in 24 well plates, so that at the time of transfection the cells were 50-70% confluent.
Briefly, per well in a 24 well plate, UASx4TKIuc (0.2 microg) Ga14-PPAR gammaLBD (or pM-hPPAR gamma-LBD; 0.1 microg) and CMV-beta-galactosidase (0.05 microg) in 30 μL DMEM (free of serum and antibiotics) was mixed with 30 microL DMEM (free of serum and antibiotics) containing 1 microL metafectenein. The mixture was incubated at room temperature for 20 min to allow formation of nucleic acid-lipid complexes and then approximately 60 micros was added to each well containing the 50-70% confluent cells. […] Cells were harvested after 12-24 hours and luciferase and beta-galactosidase activities were measured according to standard protocols.
Each experiment was carried out with triplicate samples with 0.1, 1 or 10 microM racemate or purified enantiomer.

Regarding `CCCCC/C=C\C[C@H]1C[C@@H]1[C@H](O)/C=C\C/C=C\CCCC(=O)OC` [Compound A, 10R-hydroxy-11S,12S-cyclopropyl-eicosa-5Z,8Z,14Z-trienoic acid methyl ester], the “Potency relative to Compound B, inhibition of platelet aggregation” value in the assay with washed human platelets (I-BOP evoked aggregation) was “nearly four times as active; also recorded: about four times more potent”. The “Potency relative to racemic PBT-3, inhibition of platelet aggregation” value with washed human platelets (I-BOP evoked aggregation) is given as “twice as potent”; in the assay with washed human platelets (I-BOP evoked aggregation, listed as compound A) it was 2 fold. The values for the concentration for half-maximal inhibition (IC50) (with washed human platelets; in assay [1]) were 0.027 ± 0.007 µM and 3.6 µM, respectively. In addition, the “Cleavage of caspase-3 compared with Compound B” value in assay [2] is given as “more active than Compound B”. In addition, the “Cleavage of caspase-3” value in assay [2] is on record as “increased cleavage of caspase-3”. Moreover, the “PPAR gamma transactivation, result in words” value (“PPAR gamma transactivation” for short) in assay [3] was “no apparent difference”. Besides, the “PPAR Activation as % of positive control (Avandia)” value (shortened to “PPAR Activation as %”) in assay [3] (Experiment 1, 0.1 microM) is recorded as 11 +/− 4 % of positive control (Avandia); in assay [3] (Experiment 1, 1 microM), 14 +/− 4 % of positive control (Avandia); in assay [3] (Experiment 1, 10 microM), 63 +/− 34 % of positive control (Avandia); in assay [3] (Experiment 2, 0.1 microM) it was 4 +/− 1 % of positive control (Avandia); in assay [3] (Experiment 2, 1 microM), 11 +/− 1 % of positive control (Avandia); in assay [3] (Experiment 2, 10 microM) it was 34 +/− 1 % of positive control (Avandia). Moreover, the “PPAR Activation as %” value in assay [3] (Experiment 3, 0.1 microM) is listed as 8 +/− 2 % of positive control (Avandia); in assay [3] (Experiment 3, 1 microM) it was 12 +/− 1 % of positive control (Avandia); in assay [3] (Experiment 3, 10 microM), 27 +/− 5 % of positive control (Avandia).

Take `CCCCC/C=C\CC1CC1C(O)/C=C\C/C=C\CCCC(=O)OC` (stereo not drawn) [Compound B, 10S-hydroxy-11R,12R-cyclopropyl-eicosa-5Z,8Z,14Z-trienoic acid methyl ester]: the IC50 in the assay with washed human platelets turned out to be 0.101 ± 0.027 µM; in assay [1] it was 7.6 µM. Besides, in assay [2], the “Cleavage of caspase-3” value is reported as “increased cleavage of caspase-3”. For the same compound, in assay [3], the “PPAR gamma transactivation” value is reported as “no apparent difference”. Moreover, the “PPAR Activation as %” value in assay [3] (Experiment 1, 0.1 microM) is on record as 11 +/− 3 % of positive control (Avandia); in assay [3] (Experiment 1, 1 microM) it was 21 +/− 3 % of positive control (Avandia); in assay [3] (Experiment 1, 10 microM), 44 +/− 11 % of positive control (Avandia); in assay [3] (Experiment 2, 0.1 microM), 4 +/− 1 % of positive control (Avandia); in assay [3] (Experiment 2, 1 microM) it was 10 +/− 1 % of positive control (Avandia); in assay [3] (Experiment 2, 10 microM), 35 +/− 11 % of positive control (Avandia). Also, the “PPAR Activation as %” value in assay [3] (Experiment 3, 0.1 microM) is 10 +/− 3 % of positive control (Avandia); in assay [3] (Experiment 3, 1 microM) it was 16 +/− 6 % of positive control (Avandia); in assay [3] (Experiment 3, 10 microM) it was 30 +/− 10 % of positive control (Avandia).

`CCCCC/C=C\CC1CC1C(O)/C=C\C/C=C\CCCC(=O)OC` (stereo not drawn) [Compound C, 10R-hydroxy-11R,12R-cyclopropyl-eicosa-5Z,8Z,14Z-trienoic acid methyl ester]: the values for the IC50 (in the assay on washed human platelets; in assay [1]) were 0.06 ± 0.012 µM and 4 µM, respectively. Also, the “Activity relative to Compound D, cell proliferation assay” value in assay [1] was found to be 1.3 fold. Also, the “Cleavage of caspase-3” value in assay [2] is given as “increased cleavage of caspase-3”. Also, the “PPAR Activation as %” value is listed as 14 +/− 4 % of positive control (Avandia) in assay [3] (Experiment 1, 0.1 microM); 16 +/− 3 % of positive control (Avandia) in assay [3] (Experiment 1, 1 microM); 38 +/− 8 % of positive control (Avandia) in assay [3] (Experiment 1, 10 microM); 4 +/− 1 % of positive control (Avandia) in assay [3] (Experiment 2, 0.1 microM); 6 +/− 1 % of positive control (Avandia) in assay [3] (Experiment 2, 1 microM); 14 +/− 1 % of positive control (Avandia) in assay [3] (Experiment 2, 10 microM). In addition, the “PPAR Activation as %” value is recorded as 9 +/− 3 % of positive control (Avandia) in assay [3] (Experiment 3, 0.1 microM); 7 +/− 1 % of positive control (Avandia) in assay [3] (Experiment 3, 1 microM); 17 +/− 3 % of positive control (Avandia) in assay [3] (Experiment 3, 10 microM).

As for `CCCCC/C=C\CC1CC1/C=C/C(O)C/C=C\CCCC(=O)O` (centres unmarked) [PBT-02, 8-hydroxy-11,12-cyclopropyl-eicosa-5Z,9E,14Z-trienoic acid, reference compound], in assay [3], the “PPAR gamma transactivation” value is given as “active”. For the same compound, the “PPAR Activation as %” value in assay [3] (10 microM racemate, Table 3) is reported as 17 +/− 2 % of positive control (Avandia).

`CCCCC/C=C\CC1CC1C(O)/C=C\C/C=C\CCCC(=O)O` (centres unmarked) [PBT-03, 10-hydroxy-11,12-cyclopropyl-eicosa-5Z,8Z,14Z-trienoic acid, reference compound]: the “PPAR gamma transactivation” value in assay [3] is “active”. In addition, the “PPAR Activation as %” value in assay [3] (10 microM racemate, Table 3) is 14 +/− 4 % of positive control (Avandia).
